Assay results reported in patent publication US5043353A, “A80789 polyether antibiotic” (Eli Lilly and Company, priority 1989, dated 1991).
≈ marks a conversion by molar mass, not a printed value. Positions of bridges follow the written chain, without caps; N, C: chain ends. Non-standard residues stand in square brackets, D forms with d. Residues, ends and D or L forms follow the SMILES beside them. *: point of attachment. Ileψ(thiazoline)Cys = CC[C@H](C)[C@H](N)C1=N[C@H](C(=O)*)CS1; dOrn = NCCC[C@@H](N)C(=O)O

Legend:
coccidiosis = conditions: alone; Science, 122: 244 (1955); cited from earlier work
Pseudorabies virus = test: microbe, parasite or virus in culture; assay type: cell-based; conditions: Suid alphaherpesvirus 1, read-out: level at which active
HSV I = test: microbe, parasite or virus in culture; assay type: cell-based, Herpes (HSV I); conditions: read-out: level at which active
Great Lakes influenza = test: microbe, parasite or virus in culture; assay type: cell-based; conditions: read-out: level at which active
Rhino viruses = test: microbe, parasite or virus in culture; assay type: cell-based; conditions: tissue-culture tests; read-out: level at which active
adult housefly = test: Insecticidal activity; assay type: in vivo
From the text: The A80789 compounds are also useful as insecticides. For example, A80789 is active against adult housefly at levels as low as 100 ppm.

[1] = system: Clostridium difficile 2994; test: Standard agar-dilution assay, MIC (anaerobic bacteria); assay type: cell-based; conditions: Clostridioides difficile, 24-hour incubation
Protocol: (§1) The A80789 compounds have antibacterial and anticoccidial activity. A80789 compounds are especially active against anaerobic bacteria. The minimal inhibitory concentrations (MIC's) at which A80789 inhibits various bacteria, as determined by standard agar-dilution assays, are summarized in Tables III and IV. End points were read after 24-hour incubation.

[2] = system: Eubacterium aerofaciens 1235; test: as above; assay type: cell-based; conditions: Collinsella aerofaciens, 24-hour incubation
Protocol: as §1

[3] = system: Fusobacterium necrophorum 6054A; test: as above; assay type: cell-based; conditions: 24-hour incubation
Protocol: as §1

[4] = system: Bacteroides fragilis 1877; test: as above; assay type: cell-based; conditions: 24-hour incubation
Protocol: as §1

[5] = system: Peptostreptococcus intermedius 1264; test: as above; assay type: cell-based; conditions: 24-hour incubation
Protocol: as §1

[6] = system: Bacteroides vulgatis 1211; test: as above; assay type: cell-based; conditions: 24-hour incubation
Protocol: as §1

[7] = system: Bacteroides fragilis 1936B; test: as above; assay type: cell-based; conditions: 24-hour incubation
Protocol: as §1

[8] = system: Clostridium septicum 1128; test: as above; assay type: cell-based; conditions: 24-hour incubation
Protocol: as §1

Peptococcus prevoti 1281 = test: as above; assay type: cell-based; conditions: 24-hour incubation
Protocol: as §1

[9] = system: Bacteroides melaninogenicus 2736; test: as above; assay type: cell-based; conditions: 24-hour incubation
Protocol: as §1

[10] = system: Bacteroides melaninogenicus 1856/28; test: as above; assay type: cell-based; conditions: Prevotella intermedia, 24-hour incubation
Protocol: as §1

[11] = system: Propionibacterium acnes 79; test: as above; assay type: cell-based; conditions: Cutibacterium acnes, 24-hour incubation
Protocol: as §1

[12] = system: Bacteroides thetaiotaomicron 1438; test: as above; assay type: cell-based; conditions: 24-hour incubation
Protocol: as §1

[13] = system: Bacteroides corredens 1874; test: as above; assay type: cell-based; conditions: 24-hour incubation
Protocol: as §1

[14] = system: Fusobacterium symbiosum 1470; test: as above; assay type: cell-based; conditions: 24-hour incubation
Protocol: as §1

[15] = system: Peptostreptococcus anaerobius 1428; test: as above; assay type: cell-based; conditions: 24-hour incubation
Protocol: as §1

Bacteroides fragilis 111 = test: as above; assay type: cell-based; conditions: 24-hour incubation
Protocol: as §1

[16] = system: Peptococcus asaccharolyticus 1302; test: as above; assay type: cell-based; conditions: Peptoniphilus asaccharolyticus, 24-hour incubation
Protocol: as §1

Vaccina = test: microbe, parasite or virus in culture; assay type: cell-based; conditions: tissue-culture tests; read-out: level at which active
Solubility = assay type: physicochemical; conditions: free acid form
[17] = system: Pseudomonas aeruginosa X239; test: Standard agar-dilution assay, MIC; assay type: cell-based; conditions: 24-hour incubation
Protocol: as §1

Escherichia coli N10 = test: Standard agar-dilution assay, MIC; assay type: cell-based; conditions: 24-hour incubation
Protocol: as §1

Escherichia coli TEM = test: Standard agar-dilution assay, MIC; assay type: cell-based; conditions: 24-hour incubation
Protocol: as §1

Salmonella sp = test: Standard agar-dilution assay, MIC; assay type: cell-based; conditions: 24-hour incubation
Protocol: as §1

[18] = system: Staphylococcus aureus S13E; test: Standard agar-dilution assay, MIC; assay type: cell-based; conditions: 24-hour incubation
Protocol: as §1

Klebsiella sp. = test: Standard agar-dilution assay, MIC; assay type: cell-based; conditions: 24-hour incubation
Protocol: as §1

[19] = system: Streptococcus faecium X66; test: Standard agar-dilution assay, MIC; assay type: cell-based; conditions: 24-hour incubation, reclassified as Enterococcus faecium X66
Protocol: as §1

[20] = system: Streptococcus pyogenes C203; test: Standard agar-dilution assay, MIC; assay type: cell-based; conditions: 24-hour incubation
Protocol: as §1

[21] = system: Pseudomonas aeruginosa PS18; test: Standard agar-dilution assay, MIC; assay type: cell-based; conditions: 24-hour incubation
Protocol: as §1

[22] = system: Enterobacter aerogenes EB17; test: Standard agar-dilution assay, MIC; assay type: cell-based; conditions: Klebsiella aerogenes, 24-hour incubation
Protocol: as §1

[23] = system: Pseudomonas aeruginosa X528; test: Standard agar-dilution assay, MIC; assay type: cell-based; conditions: 24-hour incubation
Protocol: as §1

[24] = system: Haemophilus influenzae 76; test: Standard agar-dilution assay, MIC; assay type: cell-based; conditions: 24-hour incubation
Protocol: as §1

[25] = system: Haemophilus influenzae C.L.; test: Standard agar-dilution assay, MIC; assay type: cell-based; conditions: 24-hour incubation
Protocol: as §1

[26] = system: Streptococcus faecalis 2041; test: Standard agar-dilution assay, MIC; assay type: cell-based; conditions: 24-hour incubation, reclassified as Enterococcus faecalis 2041
Protocol: as §1

[27] = system: Pseudomonas aeruginosa PS72; test: Standard agar-dilution assay, MIC; assay type: cell-based; conditions: 24-hour incubation
Protocol: as §1

[28] = system: Staphylococcus aureus X1.1; test: Standard agar-dilution assay, MIC; assay type: cell-based; conditions: 24-hour incubation
Protocol: as §1

[29] = system: Staphylococcus aureus X400; test: Standard agar-dilution assay, MIC; assay type: cell-based; conditions: 24-hour incubation
Protocol: as §1

[30] = system: Staphylococcus aureus V41; test: Standard agar-dilution assay, MIC; assay type: cell-based; conditions: 24-hour incubation
Protocol: as §1

[31] = system: Staphylococcus epidermidis Epi 1; test: Standard agar-dilution assay, MIC; assay type: cell-based; conditions: EPI1, 24-hour incubation
Protocol: as §1

[32] = system: Enterobacter aerogenes C32; test: Standard agar-dilution assay, MIC; assay type: cell-based; conditions: Klebsiella aerogenes, 24-hour incubation
Protocol: as §1

Serratia marcescens X99 = test: Standard agar-dilution assay, MIC; assay type: cell-based; conditions: 24-hour incubation
Protocol: as §1

Escherichia coli EC14 = test: Standard agar-dilution assay, MIC; assay type: cell-based; conditions: 24-hour incubation
Protocol: as §1

Shigella sonnei = test: Standard agar-dilution assay, MIC; assay type: cell-based; conditions: 24-hour incubation
Protocol: as §1

[33] = system: Streptococcus pneumoniae Park 1; test: Standard agar-dilution assay, MIC; assay type: cell-based; conditions: PARK1, 24-hour incubation
Protocol: as §1

[34] = system: Staphylococcus epidermidis 222; test: Standard agar-dilution assay, MIC; assay type: cell-based; conditions: 24-hour incubation
Protocol: as §1

Proteus sp. = test: Standard agar-dilution assay, MIC; assay type: cell-based; conditions: 24-hour incubation
Protocol: as §1

Eimeria acervulina = test: Feeding experiments in infected chicks; assay type: in vivo; conditions: in the feed of young chickens; chicks infected with Eimeria acervulina
Para influenza = test: microbe, parasite or virus in culture; assay type: cell-based; conditions: read-out: level at which active
HSV II = test: microbe, parasite or virus in culture; assay type: cell-based, Herpes (HSV II); conditions: tissue-culture tests; read-out: level at which active
[35] = system: Clostridium perfringens 81; test: microbe, parasite or virus in culture; assay type: cell-based; conditions: Clostridium perfringens, 81, 24 h
Culture A80789 = test: Antibiotic sensitivity disc test on the producing culture; assay type: cell-based, Streptomyces hygroscopicus; conditions: ISP No. 2 agar
Protocol: Resistance to antibiotics was measured by padding antibiotic sensitivity discs onto the surface of seeded ISP No. 2 agar plates. Resistance was scored as (+) when no zone of inhibition was observed and as (-) when a zone of inhibition was observed.

For `O=C(Nc1ccc([N+](=O)[O-])cc1)Nc1ccc([N+](=O)[O-])cc1` [4,4'-dinitrocarbanilide], the anticoccidial activity (coccidiosis) is given as “exhibits anticoccidial activity”.
For `COC1CCC(OC2C(C)C3(OC(CC4OC(O)(C(C)C(=O)O)C(C)C(OC)C4C)CC(OC)C3C)OC2(C)C2CCC(C3CCC(C4OC(C)(O)C(C)CC4C)O3)O2)OC1C` (centres unmarked) [A80789], the minimal effective concentration (Pseudorabies virus) was under 0.078 µg/mL, the minimal effective concentration (HSV I) was 2000 µg/mL and the minimal effective concentration (Great Lakes influenza) was 2000 µg/mL. For the same compound, the minimal effective concentration (Rhino viruses) was 2000 µg/mL, the “level (as low as) at which active” value (adult housefly) was 100 ppm and the MIC [1] was 0.5 µg/mL (≈ 0.565 µM). The MIC [2] was 0.5 µg/mL (≈ 0.565 µM), the MIC [3] was 2 µg/mL (≈ 2.26 µM) and the MIC [4] was 8 µg/mL (≈ 9.04 µM). For the same compound, the MIC [5] was 0.125 µg/mL (≈ 0.141 µM), the MIC [6] was 1 µg/mL (≈ 1.13 µM) and the MIC [7] was 8 µg/mL (≈ 9.04 µM). For the same compound, the MIC [8] was 0.5 µg/mL (≈ 0.565 µM), the MIC (Peptococcus prevoti 1281) was 0.125 µg/mL (≈ 0.141 µM) and the MIC [9] was 8 µg/mL (≈ 9.04 µM). The MIC [10] was 4 µg/mL (≈ 4.52 µM), the MIC [11] was 0.25 µg/mL (≈ 0.282 µM) and the MIC [12] was 128 µg/mL (≈ 145 µM). For the same compound, the MIC [13] was 8 µg/mL (≈ 9.04 µM), the MIC [14] was 2 µg/mL (≈ 2.26 µM) and the MIC [15] was 0.25 µg/mL (≈ 0.282 µM). It also gave an MIC (Bacteroides fragilis 111) of 8 µg/mL (≈ 9.04 µM), an MIC [16] of at most 0.03 µg/mL and a minimal effective concentration (Vaccina) of 2000 µg/mL. The Solubility (Solubility; in water) was “Insoluble”, the Solubility (Solubility; lower alcohols such as methanol, acetone, ethyl acetate, chloroform, diethyl ether, benzene, toluene, warm hexane) was “soluble” and the MIC [17] was over 128 µg/mL. It also gave an MIC (Escherichia coli N10) of over 128 µg/mL, an MIC (Escherichia coli TEM) of over 128 µg/mL and an MIC (Salmonella sp) of over 128 µg/mL. It also gave an MIC [18] of 0.25 µg/mL (≈ 0.282 µM), an MIC (Klebsiella sp.) of over 128 µg/mL and an MIC [19] of over 128 µg/mL. The MIC [20] was 0.03 µg/mL (≈ 0.0339 µM), the MIC [21] was over 128 µg/mL and the MIC [22] was over 128 µg/mL. For the same compound, the MIC [23] was over 128 µg/mL, the MIC [24] was over 128 µg/mL and the MIC [25] was over 128 µg/mL. The MIC [26] was over 128 µg/mL, the MIC [27] was over 128 µg/mL and the MIC [28] was 0.25 µg/mL (≈ 0.282 µM). For the same compound, the MIC [29] was 0.25 µg/mL (≈ 0.282 µM), the MIC [30] was 0.25 µg/mL (≈ 0.282 µM) and the MIC [31] was 0.25 µg/mL (≈ 0.282 µM). For the same compound, the MIC [32] was over 128 µg/mL, the MIC (Serratia marcescens X99) was over 128 µg/mL and the MIC (Escherichia coli EC14) was over 128 µg/mL. For the same compound, the MIC (Shigella sonnei) was over 128 µg/mL, the MIC [33] was 0.03 µg/mL (≈ 0.0339 µM) and the MIC [34] was 0.125 µg/mL (≈ 0.141 µM). For the same compound, the MIC (Proteus sp.) was over 128 µg/mL, the “level in feed (as low as) that caused a reduction in the number of lesions” value (Eimeria acervulina) was 100 ppm and the minimal effective concentration (Para influenza) was 2000 µg/mL. For the same compound, the minimal effective concentration (HSV II) was 2000 µg/mL and the MIC [35] was 0.5 µg/mL (≈ 0.565 µM).
With `CC[C@H](C)[C@H](N)C1=N[C@H](C(=O)N[C@@H](CC(C)C)C(=O)N[C@H](CCC(=O)O)C(=O)N[C@H](C(=O)N[C@H]2CCCCNC(=O)[C@H](CC(N)=O)NC(=O)[C@@H](CC(=O)O)NC(=O)[C@H](Cc3cnc[nH]3)NC(=O)[C@@H](Cc3ccccc3)NC(=O)[C@H]([C@@H](C)CC)NC(=O)[C@@H](CCCN)NC2=O)[C@@H](C)CC)CS1` [bacitracin] ({Ileψ(thiazoline)Cys}-L[dE]IK[dOrn]I[dF]H[dD]N; lactam 4-C) the “Resistance of culture to antibiotic” value (Culture A80789; disc 10 units) was “sensitive”.
With `CC(=O)OCC1=C(C(=O)O)N2C(=O)[C@@H](NC(=O)Cc3cccs3)[C@H]2SC1` [cephalothin] the “Resistance of culture to antibiotic” value (Culture A80789; disc 30 mcg) was “sensitive”.
For `CCC[C@@H]1C[C@@H](C(=O)N[C@@H]([C@H]2O[C@H](SC)[C@H](O)[C@@H](O)[C@H]2O)[C@@H](C)O)N(C)C1` [lincomycin], the “Resistance of culture to antibiotic” value (Culture A80789; disc 2 mcg) was “resistant”.
For `CO[C@H]1C[C@H](O[C@H]2[C@H](C)[C@@H](O[C@@H]3O[C@H](C)C[C@H](N(C)C)[C@H]3O)[C@@H](C)C[C@@]3(CO3)C(=O)[C@H](C)[C@@H](O)[C@@H](C)[C@@H](C)OC(=O)[C@@H]2C)O[C@@H](C)[C@@H]1O` [oleandomycin], the “Resistance of culture to antibiotic” value (Culture A80789; disc 15 mcg) was “sensitive”.
For `CC1(C)S[C@@H]2[C@H](NC(=O)Cc3ccccc3)C(=O)N2[C@H]1C(=O)O` [penicillin G], the “Resistance of culture to antibiotic” value (Culture A80789; disc 10 units) was “resistant”.
